Laboratory results reported in the NIST ThermoML archive (doi:10.1021/je500498m).

Test: xn = mol fraction of the nth substance listed
Settings: for speed of sound: 100 kPa, Sing-around technique in a fixed-path interferometer; for speed of sound / viscosity / mass density: Liquid; for viscosity / mass density: 101 kPa; for viscosity: Falling or rolling sphere viscometry; for mass density: Vibrating tube method; for surface tension liquid-gas: 294.4 K, Pendant drop shape

CCCCCCCCCCCCCCCC [hexadecane] + Cc1ccccc1
Settings | mass density [kg/m3] | speed of sound [m/s] | viscosity [mPa·s]
293.15 K, x2 = 0 | 773.49 | 1357.3 | 3.44
293.15 K, x2 = 0.1002 | 776.71 | 1352.9 | 3.03
293.15 K, x2 = 0.2 | 780.38 | 1348.1 | 2.64
293.15 K, x2 = 0.3018 | 784.83 | 1343.1 | 2.28
293.15 K, x2 = 0.4001 | 789.87 | 1337.2 | 1.96
293.15 K, x2 = 0.5 | 796.1 | 1332 | 1.66
293.15 K, x2 = 0.6001 | 803.76 | 1326.5 | 1.4
293.15 K, x2 = 0.7005 | 813.44 | 1321.5 | 1.16
293.15 K, x2 = 0.8001 | 825.95 | 1318 | 0.94
293.15 K, x2 = 0.8999 | 842.77 | 1318 | 0.76
303.15 K, x2 = 0 | 766.55 | 1320 | 2.72
303.15 K, x2 = 0.1002 | 769.7 | 1315.5 | 2.42
303.15 K, x2 = 0.2 | 773.29 | 1310.6 | 2.14
303.15 K, x2 = 0.3018 | 777.64 | 1305.5 | 1.87
303.15 K, x2 = 0.4001 | 782.56 | 1299.4 | 1.63
303.15 K, x2 = 0.5 | 788.63 | 1293.9 | 1.4
303.15 K, x2 = 0.6001 | 796.11 | 1288 | 1.19
303.15 K, x2 = 0.7005 | 805.54 | 1282.4 | 1
303.15 K, x2 = 0.8001 | 817.73 | 1278.2 | 0.82
303.15 K, x2 = 0.8999 | 834.11 | 1277 | 0.67
313.15 K, x2 = 0 | 759.63 | 1283.3 | –
313.15 K, x2 = 0.1002 | 762.7 | 1278.7 | –
313.15 K, x2 = 0.2 | 766.2 | 1273.6 | –
313.15 K, x2 = 0.3018 | 770.44 | 1268.4 | –
313.15 K, x2 = 0.4001 | 775.24 | 1262.1 | –
313.15 K, x2 = 0.5 | 781.15 | 1256.2 | –
313.15 K, x2 = 0.6001 | 788.42 | 1250 | –
313.15 K, x2 = 0.7005 | 797.59 | 1243.8 | –
313.15 K, x2 = 0.8001 | 809.46 | 1238.8 | –
313.15 K, x2 = 0.8999 | 825.38 | 1236.4 | –
323.15 K, x2 = 0 | 752.71 | 1247.3 | 1.82
323.15 K, x2 = 0.1002 | 755.7 | 1242.6 | 1.65
323.15 K, x2 = 0.2 | 759.11 | 1237.4 | 1.49
323.15 K, x2 = 0.3018 | 763.23 | 1231.9 | 1.33
323.15 K, x2 = 0.4001 | 767.89 | 1225.4 | 1.18
323.15 K, x2 = 0.5 | 773.64 | 1219.2 | 1.04
323.15 K, x2 = 0.6001 | 780.71 | 1212.5 | 0.9
323.15 K, x2 = 0.7005 | 789.6 | 1205.7 | 0.77
323.15 K, x2 = 0.8001 | 801.12 | 1199.9 | 0.64
323.15 K, x2 = 0.8999 | 816.6 | 1196.3 | 0.52
333.15 K, x2 = 0 | 745.79 | 1212 | 1.54
333.15 K, x2 = 0.1002 | 748.7 | 1207.1 | 1.4
333.15 K, x2 = 0.2 | 752 | 1201.7 | 1.27
333.15 K, x2 = 0.3018 | 756 | 1196 | 1.15
333.15 K, x2 = 0.4001 | 760.53 | 1189.2 | 1.03
333.15 K, x2 = 0.5 | 766.1 | 1182.7 | 0.9
333.15 K, x2 = 0.6001 | 772.93 | 1175.6 | 0.79
333.15 K, x2 = 0.7005 | 781.29 | 1168.2 | 0.67
333.15 K, x2 = 0.8001 | 792.74 | 1161.7 | 0.56
333.15 K, x2 = 0.8999 | 807.75 | 1156.7 | 0.47
343.15 K, x2 = 0 | 738.9 | – | 1.31
343.15 K, x2 = 0.1002 | 741.7 | – | 1.21
343.15 K, x2 = 0.2 | 744.9 | – | 1.1
343.15 K, x2 = 0.3018 | 748.9 | – | 1
343.15 K, x2 = 0.4001 | 753.2 | – | 0.89
343.15 K, x2 = 0.5 | 758.6 | – | 0.8
343.15 K, x2 = 0.6001 | 765.2 | – | 0.69
343.15 K, x2 = 0.7005 | 773.6 | – | 0.6
343.15 K, x2 = 0.8001 | 784.3 | – | 0.51
343.15 K, x2 = 0.8999 | 798.8 | – | 0.43
353.15 K, x2 = 0 | 731.8 | – | 1.13
353.15 K, x2 = 0.1002 | 734.5 | – | 1.05
353.15 K, x2 = 0.2 | 737.7 | – | 0.96
353.15 K, x2 = 0.3018 | 741.4 | – | 0.87
353.15 K, x2 = 0.4001 | 745.7 | – | 0.79
353.15 K, x2 = 0.5 | 750.9 | – | 0.7
353.15 K, x2 = 0.6001 | 757.2 | – | 0.61
353.15 K, x2 = 0.7005 | 765.3 | – | 0.54
353.15 K, x2 = 0.8001 | 775.7 | – | 0.46
353.15 K, x2 = 0.8999 | 789.7 | – | 0.39
363.15 K, x2 = 0 | 724.7 | – | 0.99
363.15 K, x2 = 0.1002 | 727.3 | – | 0.92
363.15 K, x2 = 0.2 | 730.4 | – | 0.85
363.15 K, x2 = 0.3018 | 733.9 | – | 0.77
363.15 K, x2 = 0.4001 | 738 | – | 0.7
363.15 K, x2 = 0.5 | 743.1 | – | 0.62
363.15 K, x2 = 0.6001 | 749.2 | – | 0.55
363.15 K, x2 = 0.7005 | 756.9 | – | 0.48
363.15 K, x2 = 0.8001 | 767 | – | 0.4
363.15 K, x2 = 0.8999 | 780.4 | – | 0.33
373.15 K, x2 = 0 | 717.5 | – | 0.87
373.15 K, x2 = 0.1002 | 720 | – | 0.81
373.15 K, x2 = 0.2 | 722.9 | – | 0.76
373.15 K, x2 = 0.3018 | 726.3 | – | 0.69
373.15 K, x2 = 0.4001 | 730.3 | – | 0.64
373.15 K, x2 = 0.5 | 735.1 | – | 0.56
373.15 K, x2 = 0.6001 | 741 | – | –
373.15 K, x2 = 0.7005 | 748.5 | – | –
373.15 K, x2 = 0.8001 | 758 | – | –

Settings | surface tension liquid-gas [mN/m]
x2 = 0 | 27.3
x2 = 0.4001 | 27.3
x2 = 0.5 | 27.5
x2 = 0.6001 | 27.6
x2 = 0.7006 | 27.7
x2 = 0.8001 | 27.8
x2 = 0.8999 | 28
